# From PubChem BioAssay (NCI)
#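 All cell lines were grown in 96-well plates and treated with compound for 48 hours. GI50 = concentration required for 50% inhibition of growth. Definition used: TGI = concentration required for complete inhibition of growth.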
# Tests used:
# Assay in all cases: NCI-60 cell line screen, 48 h
# CAKI-1 renal = tested on: CAKI-1 renal
# SN12C renal = tested on: SN12C renal
# K-562 leukemia = tested on: K-562 leukemia
# UO-31 renal = tested on: UO-31 renal
# COLO 205 colon = tested on: COLO 205 colon
# CCRF-CEM leukemia = tested on: CCRF-CEM leukemia
# SK-OV-3 ovarian = tested on: SK-OV-3 ovarian
# IGROV1 ovarian = tested on: IGROV1 ovarian
# MCF7 breast = tested on: MCF7 breast
# RXF 393 renal = tested on: RXF 393 renal
# LOX IMVI melanoma = tested on: LOX IMVI melanoma
# SF-539 CNS = tested on: SF-539 CNS
# SK-MEL-2 melanoma = tested on: SK-MEL-2 melanoma
# NCI-H522 lung = tested on: NCI-H522 lung
# NCI-H460 lung = tested on: NCI-H460 lung
# UACC-257 melanoma = tested on: UACC-257 melanoma
# DU-145 prostate = tested on: DU-145 prostate
# SNB-75 CNS = tested on: SNB-75 CNS
# OVCAR-3 ovarian = tested on: OVCAR-3 ovarian
# SK-MEL-5 melanoma = tested on: SK-MEL-5 melanoma
# MDA-MB-231 breast = tested on: MDA-MB-231 breast
# SW-620 colon = tested on: SW-620 colon
# HCT-116 colon = tested on: HCT-116 colon
# A549 NSCLC = tested on: A549 NSCLC
# MDA-MB-435 = tested on: MDA-MB-435
# BT-549 breast = tested on: BT-549 breast
# KM12 colon = tested on: KM12 colon
# TK-10 renal = tested on: TK-10 renal
# SK-MEL-28 melanoma = tested on: SK-MEL-28 melanoma
# HCC-2998 colon = tested on: HCC-2998 colon
# SF-268 CNS = tested on: SF-268 CNS
# OVCAR-4 ovarian = tested on: OVCAR-4 ovarian
# U251 CNS = tested on: U251 CNS
# HT29 colon = tested on: HT29 colon
# T-47D breast = tested on: T-47D breast
# OVCAR-8 ovarian = tested on: OVCAR-8 ovarian
# HS 578T breast = tested on: HS 578T breast
# OVCAR-5 ovarian = tested on: OVCAR-5 ovarian
# HOP-62 NSCLC = tested on: HOP-62 NSCLC
# UACC-62 melanoma = tested on: UACC-62 melanoma
# MOLT-4 leukemia = tested on: MOLT-4 leukemia
# EKVX NSCLC = tested on: EKVX NSCLC
# HOP-92 NSCLC = tested on: HOP-92 NSCLC
# RPMI-8226 leukemia = tested on: RPMI-8226 leukemia
# NCI-H23 lung = tested on: NCI-H23 lung
# PC-3 prostate = tested on: PC-3 prostate
# SF-295 CNS = tested on: SF-295 CNS
# SNB-19 CNS = tested on: SNB-19 CNS
# NCI-H226 lung = tested on: NCI-H226 lung
# HL-60(TB) leukemia = tested on: HL-60(TB) leukemia
# MALME-3M melanoma = tested on: MALME-3M melanoma
# NCI/ADR-RES ovarian = tested on: NCI/ADR-RES ovarian
# HCT-15 colon = tested on: HCT-15 colon
# M14 melanoma = tested on: M14 melanoma
# A498 renal = tested on: A498 renal
# ACHN renal = tested on: ACHN renal
# 786-0 renal = tested on: 786-0 renal
smiles,measurement,setting,value
COc1cc(/C=C/C(=O)c2cc(OC)c(OC)c(OC)c2)ccc1OCc1ccccc1,GI50,CAKI-1 renal,4.11 µM
same,TGI,CAKI-1 renal,> 100 µM
same,GI50,SN12C renal,1.94 µM
same,TGI,SN12C renal,6.59 µM
same,GI50,K-562 leukemia,2.59 µM
same,TGI,K-562 leukemia,> 100 µM
same,GI50,UO-31 renal,2.2 µM
same,TGI,UO-31 renal,> 100 µM
same,GI50,COLO 205 colon,3.34 µM
same,TGI,COLO 205 colon,26.2 µM
same,GI50,CCRF-CEM leukemia,3 µM
same,TGI,CCRF-CEM leukemia,> 100 µM
same,GI50,SK-OV-3 ovarian,4.2 µM
same,TGI,SK-OV-3 ovarian,> 100 µM
same,GI50,IGROV1 ovarian,3.06 µM
same,TGI,IGROV1 ovarian,> 100 µM
same,GI50,MCF7 breast,2.53 µM
same,TGI,MCF7 breast,> 100 µM
same,GI50,RXF 393 renal,2.18 µM
same,TGI,RXF 393 renal,6.07 µM
same,GI50,LOX IMVI melanoma,1.69 µM
same,TGI,LOX IMVI melanoma,4.09 µM
same,GI50,SF-539 CNS,2.04 µM
same,TGI,SF-539 CNS,4.28 µM
same,GI50,SK-MEL-2 melanoma,3.7 µM
same,TGI,SK-MEL-2 melanoma,25.3 µM
same,GI50,NCI-H522 lung,1.45 µM
same,TGI,NCI-H522 lung,3.43 µM
same,GI50,NCI-H460 lung,2.33 µM
same,TGI,NCI-H460 lung,6.16 µM
same,GI50,UACC-257 melanoma,3.29 µM
same,TGI,UACC-257 melanoma,68.9 µM
same,GI50,DU-145 prostate,3.55 µM
same,TGI,DU-145 prostate,> 100 µM
same,GI50,SNB-75 CNS,1.7 µM
same,TGI,SNB-75 CNS,3.62 µM
same,GI50,OVCAR-3 ovarian,3.75 µM
same,TGI,OVCAR-3 ovarian,> 100 µM
same,GI50,SK-MEL-5 melanoma,2.65 µM
same,TGI,SK-MEL-5 melanoma,11.1 µM
same,GI50,MDA-MB-231 breast,2.83 µM
same,TGI,MDA-MB-231 breast,> 100 µM
same,GI50,SW-620 colon,3.61 µM
same,TGI,SW-620 colon,> 100 µM
same,GI50,HCT-116 colon,2.73 µM
same,TGI,HCT-116 colon,> 100 µM
same,GI50,A549 NSCLC,2.77 µM
same,TGI,A549 NSCLC,> 100 µM
same,GI50,MDA-MB-435,3.2 µM
same,TGI,MDA-MB-435,> 100 µM
same,GI50,BT-549 breast,1.83 µM
same,TGI,BT-549 breast,3.9 µM
same,GI50,KM12 colon,3.6 µM
same,TGI,KM12 colon,> 100 µM
same,GI50,TK-10 renal,4.97 µM
same,TGI,TK-10 renal,> 100 µM
same,GI50,SK-MEL-28 melanoma,3.79 µM
same,TGI,SK-MEL-28 melanoma,30.6 µM
same,GI50,HCC-2998 colon,2.8 µM
same,TGI,HCC-2998 colon,7.91 µM
same,GI50,SF-268 CNS,3.65 µM
same,TGI,SF-268 CNS,> 100 µM
same,GI50,OVCAR-4 ovarian,2.84 µM
same,TGI,OVCAR-4 ovarian,> 100 µM
same,GI50,U251 CNS,2.36 µM
same,TGI,U251 CNS,7.5 µM
same,GI50,HT29 colon,2.66 µM
same,TGI,HT29 colon,> 100 µM
same,GI50,T-47D breast,2.96 µM
same,TGI,T-47D breast,> 100 µM
same,GI50,OVCAR-8 ovarian,2.16 µM
same,TGI,OVCAR-8 ovarian,5.8 µM
same,GI50,HS 578T breast,4.06 µM
same,TGI,HS 578T breast,> 100 µM
same,GI50,OVCAR-5 ovarian,2.67 µM
same,TGI,OVCAR-5 ovarian,13.7 µM
same,GI50,HOP-62 NSCLC,3.49 µM
same,TGI,HOP-62 NSCLC,43.4 µM
same,GI50,UACC-62 melanoma,1.82 µM
same,TGI,UACC-62 melanoma,4.51 µM
same,GI50,MOLT-4 leukemia,3.01 µM
same,TGI,MOLT-4 leukemia,73.4 µM
same,GI50,EKVX NSCLC,4.33 µM
same,TGI,EKVX NSCLC,51.6 µM
same,GI50,HOP-92 NSCLC,1.88 µM
same,TGI,HOP-92 NSCLC,7.57 µM
same,GI50,RPMI-8226 leukemia,1.9 µM
same,TGI,RPMI-8226 leukemia,> 100 µM
same,GI50,NCI-H23 lung,2.37 µM
same,TGI,NCI-H23 lung,7.23 µM
same,GI50,PC-3 prostate,3.16 µM
same,TGI,PC-3 prostate,> 100 µM
same,GI50,SF-295 CNS,3.16 µM
same,TGI,SF-295 CNS,> 100 µM
same,GI50,SNB-19 CNS,2.64 µM
same,TGI,SNB-19 CNS,8.69 µM
same,GI50,NCI-H226 lung,4.16 µM
same,TGI,NCI-H226 lung,> 100 µM
same,GI50,HL-60(TB) leukemia,2.14 µM
same,TGI,HL-60(TB) leukemia,7.61 µM
same,GI50,MALME-3M melanoma,5.08 µM
same,TGI,MALME-3M melanoma,> 100 µM
same,GI50,NCI/ADR-RES ovarian,2.82 µM
same,TGI,NCI/ADR-RES ovarian,9.4 µM
same,GI50,HCT-15 colon,1.75 µM
same,TGI,HCT-15 colon,5.28 µM
same,GI50,M14 melanoma,4.77 µM
same,TGI,M14 melanoma,> 100 µM
same,GI50,A498 renal,15.8 µM
same,TGI,A498 renal,58.9 µM
same,GI50,ACHN renal,2.16 µM
same,TGI,ACHN renal,5.75 µM
same,GI50,786-0 renal,4.71 µM
same,TGI,786-0 renal,> 100 µM
